Assay results from BindingDB's records for patent US11161864 (Venenum Biodesign, 2021).

Molecular target: T1, Stimulator of interferon genes protein [154-378] (Mus musculus, UniProt Q3TBT3)
T1 construct: 154-378
T1 sequence (Q3TBT3 whole entry): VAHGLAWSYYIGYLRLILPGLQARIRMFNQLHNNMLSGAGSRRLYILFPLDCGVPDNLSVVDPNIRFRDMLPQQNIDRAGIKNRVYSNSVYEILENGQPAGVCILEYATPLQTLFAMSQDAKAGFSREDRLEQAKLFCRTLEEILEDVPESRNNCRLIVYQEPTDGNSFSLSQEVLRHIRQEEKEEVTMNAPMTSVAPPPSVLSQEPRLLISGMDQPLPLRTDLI
Experiment: Binding Assay

Work on `NC(=O)c1cnc2c(c1)nc1n2CCOP(=O)(S)OC[C@H]2O[C@@H](n3cnc4c(=O)[nH]c(N)nc43)[C@H](OP(=O)(S)OC1)[C@@H]2F` (stereo partly specified) [US11161864, Example 37A] yielded an IC50 of less than 1000 nM.
